Test results published in patent EP2818472A1, “Imidazo[4,5-c]pyridine and pyrrolo[3,2-c]pyridine compounds as G-protein-coupled receptor kinase 5 (GRK5) modulators” (Max-Planck-Gesellschaft zur Förderung der Wissenschaften …, priority 2013, dated 2014).

System: beta-TC6 cells
Assay: Insulin HTRF assay (relative activity Ar) in beta-TC6 cells
Format: cell-based, mouse
Conditions: Mus musculus, Beta-TC6, 4 h, insulin HTRF, supernatant of beta-TC6 cells, incubation with test compound at 37°C for 2, 3, 4h; read-out: Ar (relative activity)
Procedure, shortened: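 beta-TC6 cells (15k/well, seeded 24 or 48 h) washed, then exposed to compound in induction buffer (0.5% DMSO final) for 2, 3 or 4 h at 37°C.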

| SMILES | Emax |
| --- | --- |
| CNc1nc2cnc(-c3cccc(Cl)c3)cc2n1Cc1ccccc1 [Compound 532, 1-benzyl-6-(3-chlorophenyl)-N-methyl-imidazo[4,5-c]pyridin-2-amine] | 50 to 100% |
| CNc1nc2cnc(-c3cccc(O)c3)cc2n1Cc1ccccc1 [Compound 533, 3-[1-benzyl-2-(methylamino)imidazo[4,5-c]pyridin-6-yl]phenol] | 50 to 100% |
| CNc1nc2cnc(Nc3ccc4c(c3)OCO4)cc2n1Cc1ccccc1 [Compound 534, N6-(1,3-benzodioxol-5-yl)-1-benzyl-N2-methyl-imidazo[4,5-c]pyridine-2,6-diamine] | 50 to 100% |
| CNc1nc2cnc(Nc3cccc(O)c3)cc2n1Cc1ccccc1 [Compound 535, 3-[[1-benzyl-2-(methylamino)imidazo[4,5-c]pyridin-6-yl]amino]phenol] | 50 to 100% |
| CNc1nc2cnc(Nc3ccc(OC)c(O)c3)cc2n1Cc1ccccc1 [Compound 536, 5-[[1-benzyl-2-(methylamino)imidazo[4,5-c]pyridin-6-yl]amino]-2-methoxy-phenol] | 50 to 100% |
| CNc1nc2cnc(Nc3ccc(C(=O)N(C)C)cc3)cc2n1Cc1ccccc1 [Compound 537, 4-[[1-benzyl-2-(methylamino)imidazo[4,5-c]pyridin-6-yl]amino]-N,N-dimethyl-benzamide] | 50 to 100% |
| CNc1nc2cnc(Nc3cccc(NC(C)=O)c3)cc2n1Cc1ccccc1 [Compound 538, N-[3-[[1-benzyl-2-(methylamino)imidazo[4,5-c]pyridin-6-yl]amino]phenyl]acetamide] | 50 to 100% |
| CNc1nc2cnc(Nc3cc(OC)c(OC)c(OC)c3)cc2n1-c1cccc(C(F)(F)F)c1 [Compound 539, N2-methyl-1-[3-(trifluoromethyl)phenyl]-N6-(3,4,5-trimethoxyphenyl)imidazo[4,5-c]pyridine-2,6-diamine] | 30 to 50% |
| CNc1nc2cnc(Nc3ccc(NC(C)=O)cc3)cc2n1-c1cccc(C(F)(F)F)c1 [Compound 540, N-[4-[[2-(methylamino)-1-[3-(trifluoromethyl)phenyl]imidazo[4,5-c]pyridin-6-yl]amino]phenyl]acetamide] | 30 to 50% |
| CNc1nc2cnc(Nc3ccc(O)cc3)cc2n1-c1cccc(C(F)(F)F)c1 [Compound 541, 4-[[2-(methylamino)-1-[3-(trifluoromethyl)phenyl]imidazo[4,5-c]pyridin-6-yl]amino]phenol] | 50 to 100% |
| CNc1nc2cnc(Nc3ccc(C(N)=O)cc3)cc2n1-c1cccc(C(F)(F)F)c1 [Compound 542, 4-[[2-(methylamino)-1-[3-(trifluoromethyl)phenyl]imidazo[4,5-c]pyridin-6-yl]amino]benzamide] | 30 to 50% |
| CNc1nc2cnc(Nc3ccc(OC)cc3OC)cc2n1-c1cccc(C(F)(F)F)c1 [Compound 543, N6-(2,4-dimethoxyphenyl)-N2-methyl-1-[3-(trifluoromethyl)phenyl]imidazo[4,5-c]pyridine-2,6-diamine] | 30 to 50% |
| CNc1nc2cnc(Nc3ccc4c(c3)OCCO4)cc2n1-c1cccc(C(F)(F)F)c1 [Compound 544, N6-(2,3-dihydro-1,4-benzodioxin-6-yl)-N2-methyl-1-[3-(trifluoromethyl)phenyl]imidazo[4,5-c]pyridine-2,6-diamine] | 50 to 100% |
| CNc1nc2cnc(Nc3ccc(OC)c(OC)c3)cc2n1-c1cccc(C(F)(F)F)c1 [Compound 545, N6-(3,4-dimethoxyphenyl)-N2-methyl-1-[3-(trifluoromethyl)phenyl]imidazo[4,5-c]pyridine-2,6-diamine] | 30 to 50% |
| CNc1nc2cnc(Nc3ccc(OC)nc3)cc2n1-c1cccc(C(F)(F)F)c1 [Compound 546, N6-(6-methoxy-3-pyridyl)-N2-methyl-1-[3-(trifluoromethyl)phenyl]imidazo[4,5-c]pyridine-2,6-diamine] | 30 to 50% |
| CNc1nc2cnc(Nc3ccc(OC)cc3)cc2n1-c1cccc(C(F)(F)F)c1 [Compound 547, N6-(4-methoxyphenyl)-N2-methyl-1-[3-(trifluoromethyl)phenyl]imidazo[4,5-c]pyridine-2,6-diamine] | 30 to 50% |
| CNc1nc2cnc(Nc3ccccn3)cc2n1-c1cccc(C(F)(F)F)c1 [Compound 548, N2-methyl-N6-(2-pyridyl)-1-[3-(trifluoromethyl)phenyl]imidazo[4,5-c]pyridine-2,6-diamine] | 30 to 50% |
| CNc1nc2cnc(Nc3ccc4c(c3)OCO4)cc2n1-c1cccc(C(F)(F)F)c1 [Compound 549, N6-(1,3-benzodioxol-5-yl)-N2-methyl-1-[3-(trifluoromethyl)phenyl]imidazo[4,5-c]pyridine-2,6-diamine] | 30 to 50% |
| CNc1nc2cnc(Nc3cccc(O)c3)cc2n1-c1cccc(C(F)(F)F)c1 [Compound 550, 3-[[2-(methylamino)-1-[3-(trifluoromethyl)phenyl]imidazo[4,5-c]pyridin-6-yl]amino]phenol] | 30 to 50% |
| CNc1nc2cnc(Nc3ccc(OC)c(O)c3)cc2n1-c1cccc(C(F)(F)F)c1 [Compound 551, 2-methoxy-5-[[2-(methylamino)-1-[3-(trifluoromethyl)phenyl]imidazo[4,5-c]pyridin-6-yl]amino]phenol] | 50 to 100% |

| SMILES | Emax |
| --- | --- |
| CNc1nc2cnc(Nc3cccc(OC)c3)cc2n1CCN1CCOCC1 [Compound 552, N6-(3-methoxyphenyl)-N2-methyl-1-(2-morpholinoethyl)imidazo[4,5-c]pyridine-2,6-diamine] | 30 to 50% |
| CNc1nc2cnc(Nc3ccc(OC)cc3OC)cc2n1CCN1CCOCC1 [Compound 553, N6-(2,4-dimethoxyphenyl)-N2-methyl-1-(2-morpholinoethyl)imidazo[4,5-c]pyridine-2,6-diamine] | 30 to 50% |
| CNc1nc2cnc(Nc3ccc4c(c3)OCCO4)cc2n1CCN1CCOCC1 [Compound 554, N6-(2,3-dihydro-1,4-benzodioxin-6-yl)-N2-methyl-1-(2-morpholinoethyl)imidazo[4,5-c]pyridine-2,6-diamine] | 50 to 100% |
| CNc1nc2cnc(Nc3ccc(OC)c(OC)c3)cc2n1CCN1CCOCC1 [Compound 555, N6-(3,4-dimethoxyphenyl)-N2-methyl-1-(2-morpholinoethyl)imidazo[4,5-c]pyridine-2,6-diamine] | 30 to 50% |
| CNc1nc2cnc(Nc3cccc(C)c3)cc2n1CCN1CCOCC1 [Compound 556, N2-methyl-1-(2-morpholinoethyl)-N6-(m-tolyl)imidazo[4,5-c]pyridine-2,6-diamine] | 30 to 50% |
| CNc1nc2cnc(Nc3ccc(OC)cc3)cc2n1CCN1CCOCC1 [Compound 557, N6-(4-methoxyphenyl)-N2-methyl-1-(2-morpholinoethyl)imidazo[4,5-c]pyridine-2,6-diamine] | 50 to 100% |
| CNc1nc2cnc(Nc3cccc(C(C)=O)c3)cc2n1CCN1CCOCC1 [Compound 558, 1-[3-[[2-(methylamino)-1-(2-morpholinoethyl)imidazo[4,5-c]pyridin-6-yl]amino]phenyl]ethanone] | 50 to 100% |
| CNc1nc2cnc(Nc3cc(OC)c(OC)c(OC)c3)cc2n1Cc1cccnc1 [Compound 559, N2-methyl-1-(3-pyridylmethyl)-N6-(3,4,5-trimethoxyphenyl)imidazo[4,5-c]pyridine-2,6-diamine] | 50 to 100% |
| CNc1nc2cnc(Nc3cccc(OC)c3)cc2n1Cc1cccnc1 [Compound 560, N6-(3-methoxyphenyl)-N2-methyl-1-(3-pyridylmethyl)imidazo[4,5-c]pyridine-2,6-diamine] | 50 to 100% |
| CNc1nc2cnc(Nc3ccc4c(c3)OCCO4)cc2n1Cc1cccnc1 [Compound 561, N6-(2,3-dihydro-1,4-benzodioxin-6-yl)-N2-methyl-1-(3-pyridylmethyl)imidazo[4,5-c]pyridine-2,6-diamine] | > 100% |
| CNc1nc2cnc(Nc3ccccc3)cc2n1Cc1cccnc1 [Compound 562, N2-methyl-N6-phenyl-1-(3-pyridylmethyl)imidazo[4,5-c]pyridine-2,6-diamine] | 30 to 50% |
| CNc1nc2cnc(-c3cccnc3)cc2n1Cc1cccnc1 [Compound 563, N-methyl-6-(3-pyridyl)-1-(3-pyridylmethyl)imidazo[4,5-c]pyridin-2-amine] | 50 to 100% |
| CNc1nc2cnc(Nc3cccc(C)c3)cc2n1Cc1cccnc1 [Compound 564, N2-methyl-N6-(m-tolyl)-1-(3-pyridylmethyl)imidazo[4,5-c]pyridine-2,6-diamine] | 50 to 100% |
| CNc1nc2cnc(Nc3ccc(F)cc3)cc2n1Cc1cccnc1 [Compound 565, N6-(4-fluorophenyl)-N2-methyl-1-(3-pyridylmethyl)imidazo[4,5-c]pyridine-2,6-diamine] | 50 to 100% |
| CNc1nc2cnc(-c3cccs3)cc2n1Cc1cccnc1 [Compound 566, N-methyl-1-(3-pyridylmethyl)-6-(2-thienyl)imidazo[4,5-c]pyridin-2-amine] | 30 to 50% |
| CNc1nc2cnc(Nc3cc(OC)c(OC)c(OC)c3)cc2n1CC1CC1 [Compound 567, 1-(cyclopropylmethyl)-N2-methyl-N6-(3,4,5-trimethoxyphenyl)imidazo[4,5-c]pyridine-2,6-diamine] | 50 to 100% |
| CNc1nc2cnc(Nc3ccc(NC(C)=O)cc3)cc2n1CC1CC1 [Compound 568, N-[4-[[1-(cyclopropylmethyl)-2-(methylamino)imidazo[4,5-c]pyridin-6-yl]amino]phenyl]acetamide] | 50 to 100% |
| CNc1nc2cnc(Nc3ccc(OC)cc3OC)cc2n1CC1CC1 [Compound 569, 1-(cyclopropylmethyl)-N6-(2,4-dimethoxyphenyl)-N2-methyl-imidazo[4,5-c]pyridine-2,6-diamine] | 30 to 50% |
| CNc1nc2cnc(Nc3ccc4c(c3)OCCO4)cc2n1CC1CC1 [Compound 570, 1-(cyclopropylmethyl)-N6-(2,3-dihydro-1,4-benzodioxin-6-yl)-N2-methyl-imidazo[4,5-c]pyridine-2,6-diamine] | 30 to 50% |
| CNc1nc2cnc(Nc3ccc(N4CCOCC4)cc3)cc2n1CC1CC1 [Compound 571, 1-(cyclopropylmethyl)-N2-methyl-N6-(4-morpholinophenyl)imidazo[4,5-c]pyridine-2,6-diamine] | 50 to 100% |
